Reference: PubChem BioAssay (NCI)
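Method: 48-hour compound exposure of cells in 96-well plates, five concentrations, linear interpolation of endpoints. GI50 is the concentration that inhibits growth by half. The concentration for full growth arrest is given as TGI.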

Legend:
Test in all cases: NCI anticancer screen, dose series, 48 h
EKVX NSCLC = system: EKVX NSCLC
KM12 colon = system: KM12 colon
MDA-MB-231 breast = system: MDA-MB-231 breast
NCI/ADR-RES ovarian = system: NCI/ADR-RES ovarian
OVCAR-4 ovarian = system: OVCAR-4 ovarian
SF-539 CNS = system: SF-539 CNS
SK-MEL-28 melanoma = system: SK-MEL-28 melanoma
SK-MEL-5 melanoma = system: SK-MEL-5 melanoma
SK-OV-3 ovarian = system: SK-OV-3 ovarian
U251 CNS = system: U251 CNS

Compound	GI50 (EKVX NSCLC) [µM]	TGI (EKVX NSCLC) [µM]	GI50 (KM12 colon) [µM]	TGI (KM12 colon) [µM]	GI50 (MDA-MB-231 breast) [µM]	TGI (MDA-MB-231 breast) [µM]	GI50 (NCI/ADR-RES ovarian) [µM]	TGI (NCI/ADR-RES ovarian) [µM]	GI50 (OVCAR-4 ovarian) [µM]	TGI (OVCAR-4 ovarian) [µM]	GI50 (SF-539 CNS) [µM]	TGI (SF-539 CNS) [µM]	GI50 (SK-MEL-28 melanoma) [µM]	TGI (SK-MEL-28 melanoma) [µM]	GI50 (SK-MEL-5 melanoma) [µM]	TGI (SK-MEL-5 melanoma) [µM]	GI50 (SK-OV-3 ovarian) [µM]	TGI (SK-OV-3 ovarian) [µM]	GI50 (U251 CNS) [µM]	TGI (U251 CNS) [µM]
Cc1sc2c(c1C)C(c1ccc(Cl)cc1)=N[C@@H](CC(=O)NCCCN1CCN(C)CC1)c1nnc(C)n1-2	> 34.6	> 100	19.6	> 100	0.198	> 100	> 100	> 100	0.748	> 100	0.607	> 100	> 30	> 100	6.36	> 100	0.309	> 42.3	8.88	> 100
NC(N)=Nc1ccc(/C=C2\C=Cc3ccccc32)cc1	4.74	22.2	1.85	3.51	1.71	3.83	4.54	18.8	2.89	15.1	3.66	9.66	4.38	17.9	4.5	17.8	6.14	22.9	1.72	3.31
CN(C)CCNC(=O)c1ccc2oc3cc4ccccc4c(=O)n3c2c1	27.5	> 100	10.5	77.8	31.8	> 100	37.4	> 100	7.6	> 100	22	47.3	26.6	> 100	22.6	43.6	63.8	> 100	34.3	> 100
Cc1ccsc1-c1ccc2c(c1)COC2(CCCN(C)C)c1ccc(F)cc1 (stereo not given)	4.64	18.5	3.13	10.9	1.84	6	3.83	15.2	3.27	13	1.8	3.4	1.76	3.33	1.78	3.2	8.16	21.9	1.95	4.24
CC(C)C(=O)c1c(C(F)(F)F)n([O-])c2ccccc2[n+]1=O	0.876	2.57	0.563	1.65	1.58	3.58	1.74	5.46	4.47	18.8	1.81	5.17	9.06	25.1	1.63	3.03	2.66	> 100	2.84	> 33.2
Cc1ccccc1C(C(=O)NC1CCCCC1)N(C(=O)CNc1ncccc1F)c1cccc(F)c1 (stereo not given)	> 100	> 100	> 100	> 100	25.1	> 100	> 100	> 100	> 23.6	> 100	22.7	81.7	> 100	> 100	> 100	> 100	20.8	> 61	27.6	> 100
C=C1C(=O)C2=CC1CCC(=O)C1(C)CCC(OC(C)=O)C(C)(C)C1CC2O (stereo not given)	–	18.9	–	15.9	–	18	–	24.9	–	10.8	–	5.19	–	> 46.4	–	6.09	–	23	–	> 47.1
O=C1CC(N2C(=O)/C(=C/C(Cl)=C\c3ccc([N+](=O)[O-])cc3)SC2=S)C(=O)N1c1ccc(O)cc1 (stereo not given)	3.25	11.7	1.83	4.64	2.14	5.06	2.13	12.1	5.13	17.3	1.72	3.81	1.95	4.2	1.92	3.66	2.99	9.26	0.597	2.21
